Results from the NIST ThermoML archive (doi:10.1016/j.fluid.2018.01.030).
± gives the expanded uncertainty stated by the source.

Experiments:
[1] = 101.33 kPa, Liquid; for viscosity: Capillary tube (Ostwald / Ubbelohde) method; for mass density: Pycnometric method
[2] = wn = mass fraction of the nth substance listed; settings: for viscosity / mass density: 101 kPa, Liquid; for viscosity: Capillary tube (Ostwald / Ubbelohde) method; for mass density: Pycnometric method; for surface tension liquid-gas: Pendant drop shape

## NCCN1CCNCC1 [N-(β-aminoethyl)piperazine)]
[1]; 303.2 K
  viscosity: 14.18 ± 0.17 mPa·s
  mass density: 981.129 ± 1 kg/m3
[1]; 313.2 K
  viscosity: 8.669 ± 0.14 mPa·s
  mass density: 977.356 ± 1 kg/m3
[1]; 323.2 K
  viscosity: 5.626 ± 0.11 mPa·s
  mass density: 973.989 ± 1 kg/m3
[1]; 333.2 K
  viscosity: 4.481 ± 0.097 mPa·s
  mass density: 969.461 ± 1.1 kg/m3
[1]; 343.2 K
  viscosity: 3.697 ± 0.095 mPa·s
  mass density: 965.122 ± 1.1 kg/m3

## CN(CCO)CCO [N-methyldiethanolamine] + O
[2]; 303.2 K, w1 = 0.1
  viscosity: 1.164 ± 0.061 mPa·s
  mass density: 1003.8 ± 1 kg/m3
[2]; 303.2 K, w1 = 0.2
  viscosity: 1.635 ± 0.063 mPa·s
  mass density: 1012.4 ± 1 kg/m3
[2]; 303.2 K, w1 = 0.3
  viscosity: 2.634 ± 0.066 mPa·s
  mass density: 1024.5 ± 1 kg/m3
[2]; 313.2 K, w1 = 0.1
  viscosity: 0.912 ± 0.061 mPa·s
  mass density: 999.5 ± 1 kg/m3
[2]; 313.2 K, w1 = 0.2
  viscosity: 1.314 ± 0.062 mPa·s
  mass density: 1008.4 ± 1 kg/m3
[2]; 313.2 K, w1 = 0.3
  viscosity: 1.946 ± 0.064 mPa·s
  mass density: 1019.5 ± 1 kg/m3
[2]; 323.2 K, w1 = 0.1
  viscosity: 0.752 ± 0.061 mPa·s
  mass density: 995.2 ± 1 kg/m3
[2]; 323.2 K, w1 = 0.2
  viscosity: 1.06 ± 0.06 mPa·s
  mass density: 1003.5 ± 1 kg/m3
[2]; 323.2 K, w1 = 0.3
  viscosity: 1.517 ± 0.062 mPa·s
  mass density: 1015.2 ± 1 kg/m3
[2]; 333.2 K, w1 = 0.1
  viscosity: 0.635 ± 0.06 mPa·s
  mass density: 990.5 ± 1 kg/m3
[2]; 333.2 K, w1 = 0.2
  viscosity: 0.867 ± 0.061 mPa·s
  mass density: 998.6 ± 1 kg/m3
[2]; 333.2 K, w1 = 0.3
  viscosity: 1.219 ± 0.061 mPa·s
  mass density: 1008.2 ± 1 kg/m3

## OCCNCCO [diethanolamine] + O
[2]; 313.2 K, w1 = 0.1
  surface tension liquid-gas: 60.42 ± 0.83 mN/m
[2]; 313.2 K, w1 = 0.2
  surface tension liquid-gas: 63.07 ± 0.84 mN/m
[2]; 313.2 K, w1 = 0.3
  surface tension liquid-gas: 61.57 ± 0.84 mN/m
[2]; 323.2 K, w1 = 0.1
  surface tension liquid-gas: 59.18 ± 0.83 mN/m
[2]; 323.2 K, w1 = 0.2
  surface tension liquid-gas: 62.23 ± 0.84 mN/m
[2]; 323.2 K, w1 = 0.3
  surface tension liquid-gas: 60.13 ± 0.84 mN/m
[2]; 333.2 K, w1 = 0.1
  surface tension liquid-gas: 58.85 ± 0.82 mN/m
[2]; 333.2 K, w1 = 0.2
  surface tension liquid-gas: 60.56 ± 0.84 mN/m
[2]; 333.2 K, w1 = 0.3
  surface tension liquid-gas: 58.43 ± 0.83 mN/m
